The source of these data is PMC8752837, “Structural basis of BAK activation in mitochondrial apoptosis initiation” (Nature Communications, 2022).

Assay [1] relates to bak−/− bax−/− HCT116 cells. Description: Apoptosis initiated by actinomycin D and TRAIL + CHX in cells constitutively expressing BAK. To be noted: AUC of SYTOX Green +ve counts/confluence, 0-48 hr, n = 3. Format: cell-based, human. An excerpt:
We enriched for GFP positive cell populations by up to four rounds of sorting. Cells were used in apoptosis assays. […]
and doxycycline (Dox)-inducible mC-BAK. d, Representative i mmunoblot for BID and sypro red staining of BCL2allKO HCT116 cells expressing V74A and D83A mC-BAK and BID from n=2 independent experiments. e, Representative immunoblot of bak-/- bax- […]
from n=2 independent experiments . GFP positive cells were sorted three and four times to achieve similar expression levels. […]
human TRAIL and cycloheximide (CHX).
Data are presented as mean + SD for one representative of n=2 experiments each of n=3 technical replicates. g, Experimental […]
BAK (mC-BAK) monitored for 48 hr by IncuCyte imaging uptake of cell-impermeable dye SYTOX Green. AUC for kinetic traces is included. At 48 hr, we quantified percentage of SYTOX Green +ve cells (%) by fluorescence activated cell sorting (FACS). Data are presented as mean + SD from one of n=3 experiments each of n=3

Another assay deals with T1, WT tevBAK (Homo sapiens, UniProt Q16611).
T1 construct: To generate tevBAK (residues 22–186), we cleaved off the histidine tag with TEV protease; His tag (vector pNIC28-Bsa4) (N, cleaved yes); made in house; host or cells: E. coli T7 Express pLac I/Y
T1 sequence (Q16611 22-186): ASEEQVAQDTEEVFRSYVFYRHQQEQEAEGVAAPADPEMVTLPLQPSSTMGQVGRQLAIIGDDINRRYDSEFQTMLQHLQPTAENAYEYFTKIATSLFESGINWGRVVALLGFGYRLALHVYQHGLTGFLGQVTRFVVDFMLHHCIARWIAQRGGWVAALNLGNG
Description: Isothermal titration calorimetry. The format is binding. Conditions: for % bound: estimated as ([BID BH3] × 100)/(KD + [BID BH3]). The protocol:
Protein samples were exchanged into 20 mM HEPES, 100 mM NaCl and 1 mM TCEP prior to the experiment. Titrations were performed by first injecting 0.5 μl of 250 or 500 µM BID BH3 peptides into a solution of 20 or 50 µM BAK followed by additional 2 μl injections. […] Results were analyzed using Origin software (OriginLab) provided by MicroCal. Binding constants (KD) and thermodynamic parameters were calculated from the average of two or three individual titrations by fitting the data to a single site binding model using a nonlinear least-squares fitting algorithm.

The next assay concerns the target T2, MEAS-BAK-His6 (Homo sapiens, UniProt Q16611).
T2 construct: C-terminus truncated recombinant human BAK containing C-terminal 6× histidine tag (MEAS-BAK); made in house; host or cells: E. coli T7 Express pLac I/Y
T2 sequence (Q16611 1-186 limits assumed): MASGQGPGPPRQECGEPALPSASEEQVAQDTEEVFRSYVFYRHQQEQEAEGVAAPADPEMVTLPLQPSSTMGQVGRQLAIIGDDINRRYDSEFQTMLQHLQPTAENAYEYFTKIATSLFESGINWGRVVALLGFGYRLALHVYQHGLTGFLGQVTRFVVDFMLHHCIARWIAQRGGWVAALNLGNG
Description: Surface plasmon resonance. The format is binding. To be noted: 20 °C. The protocol:
We conducted SPR experiments at 20 °C using a Pioneer FE optical biosensor (ForteBio) amd histidine-tagged MEAS-BAK-His6 immobilized on polycarboxylate hydrogel-coated gold chips preimmobilized with nitrilotriacetic acid (HisCap chips; ForteBio). We primed the chip in chelating buffer (10 mM HEPES pH 7.4, 150 mM NaCl, 50 µM EDTA, 0.005% Tween20) and preconditioned it at 10 µL/min with three 60 s injections of wash buffer (10 mM HEPES pH 8.3, 150 mM NaCl, 350 mM EDTA, 0.05% Tween20) and one 60 s injection of chelating buffer before charging with a 60 s injection of 500 µM NiCl2 in chelating buffer. After priming into binding buffer (20 mM HEPES pH 8.0, 200 mM NaCl, 1 mM TCEP, 0.01% Tween20), we injected BAK to achieve ~500 RU of captured protein. As reference cell, we charged one flow cell on the chip with Ni^2+ without adding protein. […] We included a series of buffer-only (blank) injections throughout the experiment to account for instrumental noise. […] We processed, double-referenced, solvent corrected, and analyzed the data using the software package Qdat (version 4.3.1.2, ForteBio). We determined kinetic rate constants and affinities by fitting the data to a 1:1 interaction model.

The next assay has as its target T3, Human BAK-∆TM-His6 (BAK) (Homo sapiens, UniProt Q16611).
T3 construct: C-terminus truncated recombinant human BAK containing C-terminal 6× histidine tag (MEAS-BAK); made in house; host or cells: E. coli T7 Express pLac I/Y
T3 sequence (Q16611 1-186 limits assumed): T2 sequence (Q16611 1-186 limits assumed)
Description: Liposome permeabilization assay (ANTS/DPX dye release from LUVs): activation of WT BAK by BH3 peptides.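 On AUC for Experiment-2 (Mean): traces normalized between buffer minimum and 3% CHAPS maximum fluorescence.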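 On AUC for Experiment-3 (Mean): traces normalized between buffer minimum and 3% CHAPS maximum fluorescence.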 Format: biochemical. Further details: AUC for Experiment-2 (Mean) / AUC for Experiment-3 (Mean) / AUC for Experiment-1 (Mean):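 traces normalized between buffer minimum and 3% CHAPS maximum fluorescence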. To be noted: for BAK activation or inhibition in liposome permeabilization: disubstituted BID-like BH3 peptides, Fig. 5c; for AUC for Experiment-1 (Mean) / AUC for Experiment-2 (Mean) / AUC for Experiment-3 (Mean): AUC 0-88 mins of liposome permeabilization; for AUC for Experiment-1 (Mean): Experiment-1, mean of N replicates; for AUC for Experiment-2 (Mean): Experiment-2, mean of N replicates; for AUC for Experiment-3 (Mean): Experiment-3, mean of N replicates. As for the experimental part: We performed liposome permeabilization assays as previously described[43]–[46]. […] We mixed the lipid film in ANTS/DPX solution by vortexing and sonication (~15 min) followed by extrusion through polycarbonate membrane of 2 μm pore size (Avanti Polar lipids) to generate homogenous large unilamellar vesicles (LUVs). We separated LUVs from free ANTS/DPX by S500 size exclusion chromatography and stored them at 4 °C in the dark. We prepared peptide and protein dilutions in 96-well black flat bottom plates (Costar) kept on ice. […] We quantified liposome permabilization by integrating area under curve (AUC) of normalized traces based on the Simpson’s equation, and analyzed that data in Excel and GraphPad Prism. AUC measurements reflect the kinetic and extent of liposome permeabilization and provide quantitative means for comparison between different experimental conditions (e.g., BAK mutants with gross or partial variation in activity).

A further assay has as its target T4, GST-BAK (Homo sapiens, UniProt Q16611).
T4 construct: made in house
T4 sequence (Q16611 1-211): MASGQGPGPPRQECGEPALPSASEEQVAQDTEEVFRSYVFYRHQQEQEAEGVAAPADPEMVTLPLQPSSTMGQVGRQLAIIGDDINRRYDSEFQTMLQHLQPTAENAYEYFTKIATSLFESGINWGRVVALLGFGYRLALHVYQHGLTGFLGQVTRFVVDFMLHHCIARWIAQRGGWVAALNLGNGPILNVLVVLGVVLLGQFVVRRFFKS
Kind of assay: Competitive fluorescence polarization assay (displacement of BID BH3 SAHB-F). The format is binding. Conditions: displacement of 10 nM BID BH3 SAHB-fluorescein from 1 µM GST-BAK; peptide 500−0.2 µM; 60 min RT; mean ± SD, n = 9 experiments; read-out: IC50 FP. An excerpt:
We also tested the monosubstituted peptides in competitive fluorescence polarization (FP) binding assays, which measure displacement from GST-BAK of BID BH3 stabilized alpha helix of BCL-2 proteins (SAHB) C-terminally tagged with fluorescein and thus informs on peptide binding affinity.
We carried out fluorescence polarization assays, measuring the displacement of the fluorescent peptide BID BH3 SAHB-F from GST-BAK, in 384-well Greiner black polystyrene plates with flat bottom (Sigma-Aldrich). Master mix consisted of 50 mM Tris-HCl pH 7.5, 50 mM KCl, 0.1 mg/mL BSA, 2 mM DTT, 0.005% Tween-20, 10 nM BID BH3 SAHB-F, and 1 µM GST-BAK. We pin transferred peptides using Biomek FX (Beckman Coulter Life Sciences, IN) to achieve final concentration of 500−0.2 µM in 20 µL final volume. We gently centrifuged plates to remove air bubbles for 1 min at 1000 rpm, and incubated them for 60 min at RT. […] Free peptide controls in each plate consisted of only BID BH3 SAHB-F and bound peptide controls containing BID BH3 SAHB-F + GST-BAK. We derived Z’-values using the equation [1 − 3(stdev^L + stdev^H)]/(average^H − average^L), where L is the free peptide control and H is the bound peptide control. […] We processed and visualized data using the software Robust Investigation of Screening Experiments (RISE) developed in house in the Pipeline Pilot platform (Accelrys, v.8.5.0). We performed at least three independent dose-response experiments for each peptide. We estimated IC50 values in RISE and GraphPad Prism v.8.0a.

[2] abbreviates: 25 °C, single site binding model.

The term Kd denotes a measure of binding affinity in units of concentration. Usually EC50 stands for the concentration at which the effect is half-maximal. Usually IC50 stands for the midpoint of a concentration-inhibition curve.

Numbered stars: 1 amine (or outer) side, 2 acyl side, 3 side chain; on linkers, the order of the positions; unused ones are H or OH. Bridge positions count the residues as written; N and C are the ends. Square brackets hold non-standard residues; d marks the D form. Peptide text beside a SMILES is read from it. I, II: the chains in the order shown. Actinocin(9to1) = Cc1c2oc3c(C)ccc(C(=O)[*:1])c3nc-2c(C(=O)[*:2])c(N)c1=O; NMeV = CN[C@H](C(=O)O)C(C)C; Sar = CNCC(=O)O

On to `Cc1c2oc3c(C)ccc(C(=O)N[C@@H]4C(=O)N[C@H](C(C)C)C(=O)N5CCC[C@H]5C(=O)N(C)CC(=O)N(C)[C@@H](C(C)C)C(=O)O[C@@H]4C)c3nc-2c(C(=O)N[C@@H]2C(=O)N[C@H](C(C)C)C(=O)N3CCC[C@H]3C(=O)N(C)CC(=O)N(C)[C@@H](C(C)C)C(=O)O[C@@H]2C)c(N)c1=O` [ActD] (I: T[dV]P[Sar][NMeV] / II: T[dV]P[Sar][NMeV]; ester I:1-I:C, II:1-II:C; linker I:N-II:N via Actinocin(9to1)), for which the “AUC ActD” value in assay [1] (V74A 3x 15% + ActD 0.5) came to 753.275; in assay [1] (V74A 3x 15% + ActD 2), 847.336; in assay [1] (V74A 3x 15% + qVD + ActD 2), 104.738; in assay [1] (V74A 4x 15% + ActD 0.5), 679.364; in assay [1] (V74A 4x 15% + ActD 2) it was 932.591; in assay [1] (V74A 4x 15% + qVD + ActD 0.5) it was 208.982. Further, the “AUC ActD” value is 91.8357 in assay [1] (V74A 4x 15% + qVD + ActD 2); 821.8 in assay [1] (WT 4x 15% + ActD 0.5); 1113.4 in assay [1] (WT 4x 15% + ActD 2); 162.981 in assay [1] (WT 4x 15% + qVD + ActD 0.5); 59.6671 in assay [1] (WT 4x 15% + qVD + ActD 2).

As to “Ac-EDIIRNIARHLAQWGDSMDRSW-NH2 [W(3)W(5)]”, the “% of BAK bound to peptide under crystallization conditions” value on WT tevBAK (10 mg/mL BAK (0.5 mM) and 2 mM peptide, from KD of […]) is given as roughly 99.99%. In addition, on WT tevBAK (setting [2]), the “ITC -T∆S” value is 5.53 ± 1.6 kcal/mol, the “ITC ∆G” value is -9.02 ± 0.10 kcal/mol and the “ITC ∆H” value was -14.55 ± 1.76 kcal/mol. Further, the “% bound” value on WT tevBAK ([BID BH3] 1 μM, listed as W3W5 peptide) is 80%. The “% bound” value at WT tevBAK ([BID BH3] 10 μM) is 97.5%. The SPR kd on MEAS-BAK-His6 (1:1 interaction model) is 2.41±0.01 ×10-2 s-1. For the same molecule, the kon on MEAS-BAK-His6 (1:1 interaction model, read-out: SPR ka) came out at 71900 ± 100 M⁻¹ s⁻¹. Further, the Kd at MEAS-BAK-His6 (MEAS-BAK-His6 captured on Ni-NTA HisCap chip, three-fold peptide dilution series injected in triplicate, 1:1 interaction model, read-out: SPR KD) was determined as 0.336 ± 0.001 µM. Also, the “SPR Rmax” value on MEAS-BAK-His6 (~500 RU captured BAK) is reported as 79.2±0.1 RU. For the same molecule, on Human BAK-∆TM-His6 (BAK) (50 nM BAK, listed as W(3)W(5) BID BH3 ligand), the “BAK activation or inhibition in liposome permeabilization” value is “fully inhibitory”. The “BAK activation or inhibition in liposome permeabilization” value on Human BAK-∆TM-His6 (BAK) (50 nM BAK, listed as W(3)W(5) BID BH3 peptide) is recorded as “activates BAK efficiently at low doses, yet inhibits BAK at high doses”.

With Ac-EDWIRNIARHLAQVGDSMDRSI-NH2 [W(0)], at Human BAK-∆TM-His6 (BAK) (1 μM peptide + 50 nM BAK), the “AUC for Experiment-1 (Mean)” value amounted to 14.3256, the “AUC for Experiment-2 (Mean)” value is recorded as 13.2515 and the “AUC for Experiment-3 (Mean)” value is on record as 14.8765. In addition, at Human BAK-∆TM-His6 (BAK) (50 μM peptide + 50 nM BAK), the “AUC for Experiment-1 (Mean)” value was found to be 13.3871, the “AUC for Experiment-2 (Mean)” value is recorded as 11.7489 and the “AUC for Experiment-3 (Mean)” value is 12.1647. Also, the half-maximal effective concentration (EC50) on Human BAK-∆TM-His6 (BAK) (Fig. 4e, 50 nM BAK, AUC vs peptide dose (Suppl. Fig. 6b), n = 2 experiments each of n = 3 technical replicates, read-out: EC50 LP) worked out at 0.365 ± 0.0228 µM. The half-inhibitory concentration (IC50) at GST-BAK turned out to be 10.8 ± 5.5 µM.
